Laboratory results reported in ChEMBL document CHEMBL1201862, “PubChem BioAssay data set” (2004).
Calls of active or inactive are those of the source.

Experiments:
[1] = NIH-3T3 fibroblast cytotoxicity, dose response, cytotoxicity control, cell-based, fluorescence, Alamar Blue, secondary assay (AID 2327); format: functional;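 also: NIH-3T3 mouse fibroblasts cultured with fluconazole at 8 µg/mL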
[2] = biological target: T1, Type-1 angiotensin II receptor (Homo sapiens, UniProt P30556); experiment: antagonism of angiotensin II type 1 receptor – cell-based, uHTS hits, selectivity assay for APJ receptor antagonist project, dose response (AID 463214); format: functional;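 also: antagonist potency against angiotensin II stimulated AT1 response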
T1 sequence (P30556 whole entry): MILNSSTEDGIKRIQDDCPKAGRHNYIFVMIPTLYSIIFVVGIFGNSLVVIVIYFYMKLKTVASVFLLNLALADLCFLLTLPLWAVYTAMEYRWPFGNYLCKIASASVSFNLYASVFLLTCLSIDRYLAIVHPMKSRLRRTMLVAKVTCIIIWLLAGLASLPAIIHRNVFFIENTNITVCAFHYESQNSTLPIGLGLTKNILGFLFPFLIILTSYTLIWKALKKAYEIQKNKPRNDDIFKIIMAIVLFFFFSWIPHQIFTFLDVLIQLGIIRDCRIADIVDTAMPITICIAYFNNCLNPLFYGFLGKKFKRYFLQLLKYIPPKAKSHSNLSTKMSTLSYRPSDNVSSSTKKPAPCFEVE

[3] = biological target: T2, Serine/threonine-protein phosphatase (Candida dubliniensis (strain CD36 / CBS 7987 / NCPF 3949 / NRRLY-17841) (Yeast), UniProt B9W6M3); experiment: blockers of CaCl2-induced CDRE-lacZ signaling – S. cerevisiae, luminescence, secondary, dose response (AID 2388); format: functional, cell-based;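 also: yeast reporter cells carrying a calcineurin-responsive lacZ construct stimulated with calcium chloride; luminescent beta-galactosidase reporter signal in whole cells rather than isolated phosphatase activity; potency for inhibition where a drop in reporter signal means calcineurin blockade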
T2 sequence (B9W6M3 whole entry): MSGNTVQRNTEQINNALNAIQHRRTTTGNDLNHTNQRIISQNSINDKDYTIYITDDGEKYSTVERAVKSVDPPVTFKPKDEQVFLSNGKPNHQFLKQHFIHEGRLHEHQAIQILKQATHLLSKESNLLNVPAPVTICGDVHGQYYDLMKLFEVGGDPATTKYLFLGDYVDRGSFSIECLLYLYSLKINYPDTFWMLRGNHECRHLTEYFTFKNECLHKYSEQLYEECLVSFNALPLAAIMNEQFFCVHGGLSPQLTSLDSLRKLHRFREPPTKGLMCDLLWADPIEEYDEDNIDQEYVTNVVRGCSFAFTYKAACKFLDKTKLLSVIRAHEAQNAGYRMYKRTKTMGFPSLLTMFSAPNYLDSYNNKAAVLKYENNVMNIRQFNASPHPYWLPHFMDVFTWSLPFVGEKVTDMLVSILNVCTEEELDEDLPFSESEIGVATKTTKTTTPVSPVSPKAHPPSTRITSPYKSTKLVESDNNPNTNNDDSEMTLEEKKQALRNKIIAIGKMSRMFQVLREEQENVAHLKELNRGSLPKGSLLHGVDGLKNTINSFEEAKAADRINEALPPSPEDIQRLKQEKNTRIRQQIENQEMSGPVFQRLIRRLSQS

[4] = biological target: ATP-dependent molecular chaperone HSP82 (Candida albicans (strain WO-1) (Yeast), UniProt C4YTQ8); experiment: steroid-induced GRE reporter decrease in yeast – S. cerevisiae, luminescence, Hsp90 inhibitor project, dose response (AID 2400); format: functional, cell-based;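 also: beta-galactosidase luminescence from glucocorticoid response element reporter as proxy for Hsp90 function; inhibitor potency where signal loss means Hsp90 inhibition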
Sequence of ATP-dependent molecular chaperone HSP82 (C4YTQ8 whole entry): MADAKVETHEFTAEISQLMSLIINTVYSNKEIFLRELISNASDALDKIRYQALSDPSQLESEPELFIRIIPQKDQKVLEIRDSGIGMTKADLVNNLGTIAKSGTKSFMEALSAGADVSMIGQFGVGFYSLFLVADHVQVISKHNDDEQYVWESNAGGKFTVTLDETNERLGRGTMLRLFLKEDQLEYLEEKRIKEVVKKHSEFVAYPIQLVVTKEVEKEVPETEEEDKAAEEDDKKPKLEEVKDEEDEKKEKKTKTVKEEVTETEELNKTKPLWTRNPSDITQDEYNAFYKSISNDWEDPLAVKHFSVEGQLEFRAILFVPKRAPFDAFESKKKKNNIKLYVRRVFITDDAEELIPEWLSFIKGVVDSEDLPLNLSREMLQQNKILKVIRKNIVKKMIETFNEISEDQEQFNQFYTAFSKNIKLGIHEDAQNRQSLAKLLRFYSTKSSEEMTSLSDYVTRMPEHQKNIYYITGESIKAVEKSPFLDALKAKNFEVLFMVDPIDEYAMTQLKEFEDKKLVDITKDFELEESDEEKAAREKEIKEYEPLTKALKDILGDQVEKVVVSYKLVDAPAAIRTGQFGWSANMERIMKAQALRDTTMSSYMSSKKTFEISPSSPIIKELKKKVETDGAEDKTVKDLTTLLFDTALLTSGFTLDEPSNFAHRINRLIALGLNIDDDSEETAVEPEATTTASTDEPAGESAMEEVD

Beta-galactosidase = Beta-galactosidase (Escherichia coli, UniProt Q8VNN2); experiment: PubChem AID 485352; format: functional
Sequence of Beta-galactosidase (Q8VNN2 whole entry): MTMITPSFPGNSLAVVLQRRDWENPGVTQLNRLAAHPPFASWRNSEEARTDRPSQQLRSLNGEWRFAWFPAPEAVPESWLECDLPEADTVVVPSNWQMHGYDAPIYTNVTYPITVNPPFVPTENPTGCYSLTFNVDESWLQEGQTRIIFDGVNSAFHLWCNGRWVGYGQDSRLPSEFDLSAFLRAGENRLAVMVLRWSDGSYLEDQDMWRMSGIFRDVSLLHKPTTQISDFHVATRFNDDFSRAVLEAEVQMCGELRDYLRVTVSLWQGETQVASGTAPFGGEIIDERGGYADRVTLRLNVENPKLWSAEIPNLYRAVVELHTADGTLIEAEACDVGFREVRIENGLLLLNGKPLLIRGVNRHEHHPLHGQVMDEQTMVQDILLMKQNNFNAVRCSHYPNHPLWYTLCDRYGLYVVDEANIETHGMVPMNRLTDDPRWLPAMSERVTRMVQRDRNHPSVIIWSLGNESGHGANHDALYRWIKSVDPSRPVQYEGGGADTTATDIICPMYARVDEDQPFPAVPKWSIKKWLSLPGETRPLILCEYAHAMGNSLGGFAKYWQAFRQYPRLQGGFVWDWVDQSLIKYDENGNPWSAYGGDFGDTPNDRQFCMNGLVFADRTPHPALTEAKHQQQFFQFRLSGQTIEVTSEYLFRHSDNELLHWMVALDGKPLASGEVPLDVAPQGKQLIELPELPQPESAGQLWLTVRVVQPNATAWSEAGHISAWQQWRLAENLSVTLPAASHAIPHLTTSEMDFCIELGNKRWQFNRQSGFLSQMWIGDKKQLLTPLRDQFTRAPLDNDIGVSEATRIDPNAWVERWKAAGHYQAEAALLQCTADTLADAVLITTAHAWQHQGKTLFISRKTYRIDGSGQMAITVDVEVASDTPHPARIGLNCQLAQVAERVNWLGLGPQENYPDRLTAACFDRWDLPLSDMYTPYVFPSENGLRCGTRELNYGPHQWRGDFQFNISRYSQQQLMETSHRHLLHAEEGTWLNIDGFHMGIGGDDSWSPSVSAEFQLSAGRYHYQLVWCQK

[5] = fluconazole-exposed Candida albicans growth modulators – fluorescence, retest, confirmation (AID 2467); format: functional, cell-based
HEK293 [6] = experiment: SAR Analysis of small molecule inhibitors of B-cell specific antigen receptor-induced NF-kB activation in a HEK-293T cell line using a luminescence assay - Set 2. [Related pubchem assays (depositor defined):AID435022, AID435025, AID489021]; format: functional, cell-based; details: Homo sapiens
HEK293 [7] = experiment: HEK293T cell viability loss, resazurin readout – resazurin fluorescence, cytotoxicity control for NF-kB activator project, SAR follow-up (AID 493251); format: functional, cell-based; details: Homo sapiens
Jurkat = experiment: SAR Analysis of small molecule inhibitors of […] specific antigen receptor-induced NF-kB activation in a Jurkat cell line using a luminescence assay - Set 3. [Related pubchem assays (depositor defined):AID435022, AID435025, AID465]; format: functional, cell-based; details: Homo sapiens
[8] = biological target: T3, Oxysterols receptor LXR-beta (Homo sapiens, UniProt P55055); format: functional, cell-based;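 also: Cell-based luminescence dose-response assay of agonist activity at LXR, run as a confirmatory counterscreen to a daf-12 agonist screen; HEK293 cells with Gal4-LXR fusion and GAL4-driven luciferase reporter; agonist potency from rising luciferase signal of a Gal4-LXR reporter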
T3 sequence (P55055 whole entry): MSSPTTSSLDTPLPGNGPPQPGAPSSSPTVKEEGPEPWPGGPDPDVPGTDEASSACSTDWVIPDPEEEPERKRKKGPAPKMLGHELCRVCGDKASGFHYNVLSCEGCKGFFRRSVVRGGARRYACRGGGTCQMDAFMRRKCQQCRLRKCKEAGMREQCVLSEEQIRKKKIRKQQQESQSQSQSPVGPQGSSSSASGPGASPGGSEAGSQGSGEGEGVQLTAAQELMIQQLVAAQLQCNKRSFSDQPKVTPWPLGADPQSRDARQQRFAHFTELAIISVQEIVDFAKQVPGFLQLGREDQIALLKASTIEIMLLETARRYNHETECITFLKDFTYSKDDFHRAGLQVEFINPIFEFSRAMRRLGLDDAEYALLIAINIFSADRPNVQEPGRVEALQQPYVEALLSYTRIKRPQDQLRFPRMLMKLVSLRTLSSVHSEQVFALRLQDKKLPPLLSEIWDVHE

[9] = biological target: T4, Nuclear receptor subfamily 0 group B member 1 (Homo sapiens, UniProt P51843); experiment: Luminescence-based cell-based high throughput dose response assay for inhibitors of the orphan nuclear receptor subfamily 0, group B, member 1 (DAX1; NR0B1). [Related pubchem assays (depositor defined):AID504766, AID504790]; format: functional
T4 sequence (P51843 whole entry): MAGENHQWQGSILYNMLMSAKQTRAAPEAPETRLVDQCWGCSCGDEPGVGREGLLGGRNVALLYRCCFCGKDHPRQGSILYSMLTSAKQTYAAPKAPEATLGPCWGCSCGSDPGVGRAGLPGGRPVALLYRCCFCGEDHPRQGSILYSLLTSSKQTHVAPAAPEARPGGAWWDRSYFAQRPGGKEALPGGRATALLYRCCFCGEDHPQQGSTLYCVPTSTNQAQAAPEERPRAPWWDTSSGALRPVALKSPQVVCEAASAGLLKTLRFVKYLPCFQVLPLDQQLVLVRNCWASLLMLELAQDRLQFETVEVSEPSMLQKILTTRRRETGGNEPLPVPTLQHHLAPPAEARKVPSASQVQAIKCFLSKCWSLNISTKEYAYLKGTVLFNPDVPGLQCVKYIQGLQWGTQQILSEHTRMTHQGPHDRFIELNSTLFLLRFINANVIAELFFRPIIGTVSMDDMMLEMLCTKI

HEK293 [10] = experiment: cells; format: functional, cell-based; details: Homo sapiens
[11] = biological target: T5, Nucleotide-binding oligomerization domain-containing protein 1 (Homo sapiens, UniProt Q9Y239); experiment: blockers of NOD1 pathway activity – revised, SAR follow-up (AID 2333); format: functional
T5 sequence (Q9Y239 whole entry): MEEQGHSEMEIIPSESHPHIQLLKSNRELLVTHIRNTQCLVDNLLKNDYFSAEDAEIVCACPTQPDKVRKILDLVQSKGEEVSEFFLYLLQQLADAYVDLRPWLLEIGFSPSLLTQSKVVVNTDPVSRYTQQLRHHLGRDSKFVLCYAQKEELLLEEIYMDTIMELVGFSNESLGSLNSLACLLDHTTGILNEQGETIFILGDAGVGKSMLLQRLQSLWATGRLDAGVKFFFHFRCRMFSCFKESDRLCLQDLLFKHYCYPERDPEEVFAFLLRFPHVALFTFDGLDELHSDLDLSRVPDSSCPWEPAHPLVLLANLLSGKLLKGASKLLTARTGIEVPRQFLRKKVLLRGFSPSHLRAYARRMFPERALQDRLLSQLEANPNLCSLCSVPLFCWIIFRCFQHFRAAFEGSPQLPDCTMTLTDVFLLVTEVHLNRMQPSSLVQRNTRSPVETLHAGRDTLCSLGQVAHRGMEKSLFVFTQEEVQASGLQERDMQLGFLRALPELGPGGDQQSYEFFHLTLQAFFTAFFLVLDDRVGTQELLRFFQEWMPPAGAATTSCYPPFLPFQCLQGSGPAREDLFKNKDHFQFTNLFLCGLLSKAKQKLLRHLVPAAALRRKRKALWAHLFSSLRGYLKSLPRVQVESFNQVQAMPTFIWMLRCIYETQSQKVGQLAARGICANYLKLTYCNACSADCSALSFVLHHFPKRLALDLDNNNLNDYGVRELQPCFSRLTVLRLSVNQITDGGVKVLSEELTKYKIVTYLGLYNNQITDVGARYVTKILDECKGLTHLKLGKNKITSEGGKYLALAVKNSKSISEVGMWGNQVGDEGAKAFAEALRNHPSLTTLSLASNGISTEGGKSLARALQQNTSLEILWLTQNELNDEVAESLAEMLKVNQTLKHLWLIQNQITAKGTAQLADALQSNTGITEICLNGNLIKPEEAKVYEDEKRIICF

Tumor necrosis factor = Tumor necrosis factor (Homo sapiens, UniProt P01375); experiment: analog potency on TNFa NF-kB signaling – cell-based, revised, SAR follow-up (AID 2337); format: functional
Sequence of Tumor necrosis factor (P01375 whole entry, the tested form may be a part): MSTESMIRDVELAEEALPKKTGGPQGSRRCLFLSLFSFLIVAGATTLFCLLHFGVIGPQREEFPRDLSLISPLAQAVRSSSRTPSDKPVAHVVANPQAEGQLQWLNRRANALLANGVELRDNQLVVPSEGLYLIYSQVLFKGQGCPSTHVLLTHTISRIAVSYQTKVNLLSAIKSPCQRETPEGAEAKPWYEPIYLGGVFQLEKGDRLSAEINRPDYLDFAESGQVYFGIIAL

[12] = biological target: T6, Nucleotide-binding oligomerization domain-containing protein 2 (Homo sapiens, UniProt Q9HC29); experiment: inhibition of NOD2-driven NF-kB reporter – cell-based, luminescence, uHTS, HEK293 (AID 1566); format: functional
T6 sequence (Q9HC29 whole entry, the tested form may be a part): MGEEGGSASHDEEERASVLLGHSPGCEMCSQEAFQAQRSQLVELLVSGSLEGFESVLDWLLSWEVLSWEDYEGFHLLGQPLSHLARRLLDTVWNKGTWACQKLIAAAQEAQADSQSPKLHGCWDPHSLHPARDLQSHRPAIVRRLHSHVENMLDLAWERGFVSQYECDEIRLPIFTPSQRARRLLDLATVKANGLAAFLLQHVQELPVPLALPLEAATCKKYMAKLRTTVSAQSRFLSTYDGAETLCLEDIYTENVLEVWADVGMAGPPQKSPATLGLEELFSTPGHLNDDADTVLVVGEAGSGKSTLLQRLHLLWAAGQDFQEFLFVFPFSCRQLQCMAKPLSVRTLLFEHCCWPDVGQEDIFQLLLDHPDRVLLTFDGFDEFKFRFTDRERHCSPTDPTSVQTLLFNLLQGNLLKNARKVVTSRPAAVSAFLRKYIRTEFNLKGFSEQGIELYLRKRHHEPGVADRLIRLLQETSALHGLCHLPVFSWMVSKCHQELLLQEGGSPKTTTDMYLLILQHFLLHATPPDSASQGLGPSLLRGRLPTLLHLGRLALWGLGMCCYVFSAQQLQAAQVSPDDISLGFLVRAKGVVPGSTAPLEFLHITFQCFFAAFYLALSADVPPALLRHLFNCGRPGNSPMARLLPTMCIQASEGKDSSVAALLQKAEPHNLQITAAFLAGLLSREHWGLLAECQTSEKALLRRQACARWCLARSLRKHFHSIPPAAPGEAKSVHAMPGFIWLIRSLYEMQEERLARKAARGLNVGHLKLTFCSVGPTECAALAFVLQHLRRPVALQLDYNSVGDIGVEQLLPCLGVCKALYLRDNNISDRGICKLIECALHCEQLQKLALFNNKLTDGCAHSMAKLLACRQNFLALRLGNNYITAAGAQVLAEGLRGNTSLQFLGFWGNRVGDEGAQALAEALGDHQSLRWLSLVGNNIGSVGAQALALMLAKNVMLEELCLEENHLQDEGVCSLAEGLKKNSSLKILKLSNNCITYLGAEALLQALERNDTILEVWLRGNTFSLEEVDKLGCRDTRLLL

[13] = biological target: T6, Nucleotide-binding oligomerization domain-containing protein 2; experiment: PubChem AID 2334; format: functional
[14] = biological target: T7, Zinc finger protein mex-5 (Caenorhabditis elegans, UniProt Q9XUB2); experiment: potency of MEX-5 RNA-binding blockers – biochemical, C. elegans, fluorescence polarization, dose response (AID 1960)
T7 sequence (Q9XUB2 whole entry): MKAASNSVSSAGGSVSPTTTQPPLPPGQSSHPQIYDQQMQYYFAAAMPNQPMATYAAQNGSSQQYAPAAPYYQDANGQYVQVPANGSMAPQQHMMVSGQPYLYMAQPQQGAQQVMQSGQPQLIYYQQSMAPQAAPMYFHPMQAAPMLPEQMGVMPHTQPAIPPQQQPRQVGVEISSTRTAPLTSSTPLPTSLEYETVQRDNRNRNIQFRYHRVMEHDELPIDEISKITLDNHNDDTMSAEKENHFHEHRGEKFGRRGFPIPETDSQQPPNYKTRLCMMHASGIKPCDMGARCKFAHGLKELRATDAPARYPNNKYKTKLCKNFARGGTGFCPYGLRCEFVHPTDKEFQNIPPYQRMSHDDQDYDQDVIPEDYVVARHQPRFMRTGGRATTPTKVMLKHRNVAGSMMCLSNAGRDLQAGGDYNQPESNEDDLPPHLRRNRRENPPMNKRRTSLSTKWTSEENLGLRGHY

[15] = biological target: T8, RNA-binding protein pos-1 (Caenorhabditis elegans, UniProt G5EF15); experiment: disruptors of C. elegans POS-1 RNA interaction – biochemical, fluorescence polarization, dose response (AID 1964);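 also: purified POS-1 fused to maltose binding protein made in E. coli; potency of compounds blocking POS-1 binding to fluorescent RNA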
T8 sequence (G5EF15 whole entry): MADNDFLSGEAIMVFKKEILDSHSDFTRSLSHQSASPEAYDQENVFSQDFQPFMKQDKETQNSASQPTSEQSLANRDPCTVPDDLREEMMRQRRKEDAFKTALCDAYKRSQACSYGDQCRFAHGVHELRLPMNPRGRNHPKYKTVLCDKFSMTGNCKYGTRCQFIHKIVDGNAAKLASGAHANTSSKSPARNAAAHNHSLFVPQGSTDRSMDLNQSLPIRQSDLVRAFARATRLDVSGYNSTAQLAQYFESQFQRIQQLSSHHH

SMILES	IC50 [2]	EC50 (Beta-galactosidase)	IC50 (HEK293 [6])	IC50 (HEK293 [7])	IC50 (Jurkat)	IC50 [9]	IC50 (HEK293 [10])	further results
CCC(C)c1ccc(O)c(NC(=S)NC(=O)c2cccnc2)c1 (stereo unspecified)	14 µM (active)	> 40 µM (inactive)	–	–	–	–	–	EC50 [1]: > 150 µM (inactive); EC50 [3]: > 180 µM (inactive); EC50 [4]: 48.9 µM (active); EC50 [5]: 0.632 µM (active)
CCOc1ccc(-c2nc(CSCC(=O)NCCc3ccc(C)cc3)c(C)o2)cc1	–	–	40.2 µM (inactive)	> 80 µM (inactive)	49.8 µM (inactive)	–	–	–
CC(C)(C)c1ccc(-c2noc(CCC(=O)Nc3cccc([N+](=O)[O-])c3)n2)cc1	–	–	3.73 µM (active)	22.1 µM (inactive)	60.7 µM (inactive)	–	–	–
Cc1ccc(-c2cc(-c3ccc(F)cc3)[nH]n2)c(O)c1	–	–	–	–	–	> 67.5 µM (inactive)	> 67.5 µM (inactive)	EC50 [8]: > 67.5 µM (inactive); EC50 (cells): > 67.5 µM (inactive)
Fc1ccc(NC(=S)Nc2nccs2)cc1	25.2 µM (not active)	> 40 µM (inactive)	–	–	–	–	–	IC50 [11]: > 20 µM (inactive); IC50 (Tumor necrosis factor): > 20 µM (inactive); EC50 [12]: > 20 µM (inactive); IC50 [13]: > 20 µM (inactive)
Fc1ccc(-c2nc3c(Cl)cc(C(F)(F)F)cn3c2Cl)cc1	–	–	–	–	–	> 67.6 µM (inactive)	> 67.6 µM (inactive)	EC50 [14]: 37.1 µM (active); EC50 [15]: 41.6 µM (active)
